According to article PMC10173194 (Journal of Advanced Research, 2022):

Target: T1, PKCε (Homo sapiens, UniProt Q02156)
T1 sequence (Q02156 1-737): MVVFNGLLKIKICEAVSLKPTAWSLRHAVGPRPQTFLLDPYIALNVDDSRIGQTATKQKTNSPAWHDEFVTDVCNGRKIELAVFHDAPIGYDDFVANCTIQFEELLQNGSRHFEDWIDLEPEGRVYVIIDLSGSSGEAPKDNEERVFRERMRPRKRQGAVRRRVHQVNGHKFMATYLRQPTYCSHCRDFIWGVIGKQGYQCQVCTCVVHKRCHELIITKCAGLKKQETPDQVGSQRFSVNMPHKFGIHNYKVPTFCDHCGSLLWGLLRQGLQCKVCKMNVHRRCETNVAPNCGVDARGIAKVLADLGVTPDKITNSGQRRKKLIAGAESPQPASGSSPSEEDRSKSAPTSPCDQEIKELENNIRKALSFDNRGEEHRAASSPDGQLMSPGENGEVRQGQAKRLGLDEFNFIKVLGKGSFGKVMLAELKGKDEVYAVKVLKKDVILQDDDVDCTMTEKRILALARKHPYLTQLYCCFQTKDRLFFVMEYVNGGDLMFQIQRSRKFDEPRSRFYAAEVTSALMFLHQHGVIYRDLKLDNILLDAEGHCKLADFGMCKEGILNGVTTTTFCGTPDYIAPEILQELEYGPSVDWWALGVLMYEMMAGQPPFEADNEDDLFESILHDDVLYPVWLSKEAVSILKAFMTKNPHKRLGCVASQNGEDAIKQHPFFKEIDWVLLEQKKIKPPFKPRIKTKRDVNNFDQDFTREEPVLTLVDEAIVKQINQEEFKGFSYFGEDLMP
Experiment: SPR
Assay type: binding

Kd: 44.8 µM
Compound: COc1cccc2c1C(=O)c1c(O)c3c(c(O)c1C2=O)C[C@@](O)(C(=O)CO)C[C@@H]3O[C@H]1C[C@H](N)[C@H](O)[C@H](C)O1 [Dox, Doxorubicin]
